Test results from US9632088B2, “Methods and compositions for gamma-secretase assay” (MEMORIAL SLOAN-KETTERING CANCER CENTER, priority 2010, dated 2017).

Biological target: T1, γ-secretase (Homo sapiens, UniProt P49768)
T1 construct: endogenous in cells; host or cells: HEK293 cells transiently transfected with myc-tagged N1-ΔE (substrate only)
Assay: Cell-based Notch cleavage assay, western blot with SM320, HEK293 cells transfected with N1-ΔE
Details: 1 μM inhibitor, 48 hours
Method: HEK293 cells were seeded in a 24-well plate and transfected with either truncated Notch1-ΔE construct (N1-ΔE) (gift from Dr. Raphael Kopan, Washington University School of Medicine, St. Louis, Mo.; (see Supplemental FIG. 1A of van Tetering et al., 2009, J. Biol. Chem., 284:31018-31027, for a diagram of N1-ΔE)) including cmyc (24), or empty pcDNA3.1 (−) (Invitrogen), using Fugene 6 transfection reagents (Roche). N1-ΔE includes the replete intracellular sequence, the transmembrane domain, and a truncated extracellular portion lacking LNR and the EGF repeat sequences (see Supplemental FIG. 1A of van Tetering et al., 2009, J. Biol. Chem., 284:31018-31027). […] The proteins were transferred to PVDF membrane (Millipore) using a semi-dry transfer emit (Bio-Rad) and analyzed by western blot with anti-myc antibody (prepared at Memorial Sloan-Kettering Cancer Center) and SM320 antibody.
HEK 293 cells were transiently transfected with truncated Notch1-ΔE construct including cmyc (N1-ΔE), a substrate of γ-secretase that is independent of ligand activation, as described in Experimental Methods. […] Cell lysates were analyzed by performing SDS-PAGE and immunoblotting the result with anti-myc and SM320 antibody (FIG. 6A). […] N1-ΔE was detected only in cells transfected with this construct (FIG. 6A, upper panel, lanes 1 and 2) but not in the mock transfected cells (FIG. 6A, upper panel, lane 3).

Question: Which “detection of cleaved NICD band by SM320 (western blot)” value does the source give for `CC(NC(=O)Cc1cc(F)cc(F)c1)C(=O)NC1N=C(c2ccccc2)c2ccccc2N(C)C1=O` (stereo not shown) [Compound E] here?
Answer: The value was “not in the Compound E-treated cells”.
